# Earlier results as cited in patent publication US5889008A, “Substituted 1-indolylpropyl-4-phenethylpiperazadine derivatives” (Merck Sharp & Dohme, Ltd., priority 1995, dated 1999).
# Columns and labels:
# [1] = tested on: human 5-HT1Dα and 5-HT1Dβ receptor subtypes; conditions: cf. WO-A-91/17174, Table 1
# humans = conditions: therapeutic doses
smiles,measurement,setting,value
CNS(=O)(=O)Cc1ccc2[nH]cc(CCN(C)C)c2c1 [sumatriptan],discrimination between the human 5-HT1Dα and 5-HT1Dβ receptor subtypes,[1],barely discriminates between the human 5-HT1Dα and 5-HT1Dβ receptor subtypes
same,adverse cardiovascular events,humans,certain adverse cardiovascular events
